The conditions of series [1]: clinical studies; cited from earlier work.
In series [2] the test system is NK-92-TK-CD16-IL-2 cells. Kind of series: Functionality of the TK suicide gene: ganciclovir treatment of mice carrying NK-92-TK-CD16-IL-2 cells. The format is in vivo, SCID mice. To be noted: ganciclovir 50 μg i.p. every other day, two or three doses; within 24 hours to 72 hours. As to the method: The mice in the first group are treated with two or three doses of ganciclovir (50 μg) intraperitoneally every other day. The mice in the second group are treated with placebo. […] Expansion of NK-92-TK-CD16-IL-2 cells continues to increase over time in mice treated with placebo.

As to `CC[C@H](C(=O)N1CCCC[C@H]1C(=O)O[C@H](CCc1ccc(OC)c(OC)c1)c1cccc(OCC(=O)NCCNC(=O)COc2cccc([C@@H](CCc3ccc(OC)c(OC)c3)OC(=O)[C@@H]3CCCCN3C(=O)[C@@H](CC)c3cc(OC)c(OC)c(OC)c3)c2)c1)c1cc(OC)c(OC)c(OC)c1` [AP1903], the tolerability result in series [1] was “well tolerated”. Take `Nc1nc(O)c2ncn(COC(CO)CO)c2n1` [ganciclovir]: in series [2], the “change in NK-92-TK-CD16-IL-2 cells” value was “significant reduction”.

Values taken from US12384852B2, “Genetically modified NK-92 cells having a safety switch” (ImmunityBio, Inc., priority 2015, dated 2025).
